{
  "source": "patent US11612604B2",
  "about": "“Methods of treating cancer with PLK4 inhibitors” (LUDWIG INSTITUTE FOR CANCER RESEARCH LTD, priority 2017, dated 2023)",
  "data": [
    {"target": "T1, PLK4 (Homo sapiens, UniProt O00444)", "T1 sequence (O00444 1-970)": "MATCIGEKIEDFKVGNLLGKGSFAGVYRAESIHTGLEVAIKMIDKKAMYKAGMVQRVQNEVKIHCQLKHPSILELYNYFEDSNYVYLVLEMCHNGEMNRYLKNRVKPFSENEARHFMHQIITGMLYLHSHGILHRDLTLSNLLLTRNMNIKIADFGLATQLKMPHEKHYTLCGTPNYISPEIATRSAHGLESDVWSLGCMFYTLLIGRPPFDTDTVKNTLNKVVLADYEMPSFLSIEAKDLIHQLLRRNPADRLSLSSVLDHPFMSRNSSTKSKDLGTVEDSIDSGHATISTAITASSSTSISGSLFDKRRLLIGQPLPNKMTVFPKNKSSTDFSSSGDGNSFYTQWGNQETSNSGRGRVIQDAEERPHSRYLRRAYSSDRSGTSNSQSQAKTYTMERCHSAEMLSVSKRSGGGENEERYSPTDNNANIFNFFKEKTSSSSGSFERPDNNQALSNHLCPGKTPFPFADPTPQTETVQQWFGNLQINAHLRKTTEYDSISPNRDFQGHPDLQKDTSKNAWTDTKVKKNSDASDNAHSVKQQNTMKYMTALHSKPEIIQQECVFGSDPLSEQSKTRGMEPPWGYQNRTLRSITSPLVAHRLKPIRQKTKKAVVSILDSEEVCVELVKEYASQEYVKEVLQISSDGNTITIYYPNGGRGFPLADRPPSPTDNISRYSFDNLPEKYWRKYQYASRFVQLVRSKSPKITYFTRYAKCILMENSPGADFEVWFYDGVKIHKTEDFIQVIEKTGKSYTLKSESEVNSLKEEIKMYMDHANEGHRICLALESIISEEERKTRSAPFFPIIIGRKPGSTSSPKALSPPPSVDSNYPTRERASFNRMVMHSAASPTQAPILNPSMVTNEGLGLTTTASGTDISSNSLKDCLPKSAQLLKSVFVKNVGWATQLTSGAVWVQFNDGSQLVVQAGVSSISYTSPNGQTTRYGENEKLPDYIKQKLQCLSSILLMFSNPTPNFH", "assay": "Activity (IC50) of the Table 1 compounds as PLK4 inhibitors", "format": "biochemical", "details": "Table 1, IC50 class", "units": {"IC50": "nM"}, "values": [
      {"smiles": "COc1c(Nc2cc(C)[nH]n2)nc(Sc2ccc(NC(=O)C3CC3)cc2)nc1NC(C)C", "IC50": "< 100"},
      {"smiles": "CNc1nc(Sc2ccc(NC(=O)C3CC3)cc2)nc(Nc2cc(C)[nH]n2)c1OC", "IC50": "< 100"},
      {"smiles": "CCNc1nc(Sc2ccc(NC(=O)C3CC3)cc2)nc(Nc2cc(C)[nH]n2)c1OC", "IC50": "< 100"},
      {"smiles": "CC(=O)Nc1ccc(Sc2nc3c(c(Nc4cc(C)[nH]n4)n2)C(C)CC3)cc1", "note": "(stereo not drawn)", "IC50": "< 100"},
      {"smiles": "COc1c(Nc2cc(C)[nH]n2)nc(Sc2ccc(C(=O)Oc3cccc([N+](=O)[O-])c3F)cc2F)nc1N1CCOCC1", "IC50": "< 100"},
      {"smiles": "COc1c(Nc2cc(C)[nH]n2)nc(Sc2ccc(S(=O)(=O)C(C)(C)c3cccc([N+](=O)[O-])c3F)cc2F)nc1N1CCOCC1", "IC50": "< 100"},
      {"smiles": "COc1c(Nc2cc(C)[nH]n2)nc(Sc2ccc(NC(=O)c3cccc([N+](=O)[O-])c3)cc2F)nc1N1CCOCC1", "IC50": "100 to 1000"},
      {"smiles": "COc1c(Nc2cc(C)[nH]n2)nc(Sc2ccc(S(=O)(=O)Cc3cccc(C#N)c3F)cc2F)nc1N1CCN(CCN(C)C)CC1", "IC50": "< 100"},
      {"smiles": "COc1c(Nc2cc(C)[nH]n2)nc(Sc2ccc(S(=O)(=O)C(F)c3cccc(C#N)c3F)cc2F)nc1N1CCOCC1", "note": "(stereo not drawn)", "IC50": "< 100"},
      {"smiles": "COc1c(Nc2cc(C)[nH]n2)nc(Sc2ccc(S(=O)(=O)Nc3cccc([N+](=O)[O-])c3)cc2F)nc1N1CCOCC1", "IC50": "< 100"},
      {"smiles": "COc1c(Nc2cc(C)[nH]n2)nc(Sc2ccc(S(=O)(=O)Cc3cccc([N+](=O)[O-])c3F)cc2F)nc1N1CCCC[C@@H]1CO", "IC50": "< 100"},
      {"smiles": "COc1c(Nc2cc(C)[nH]n2)nc(Sc2ccc(S(=O)(=O)Cc3cccc([N+](=O)[O-])c3F)cc2F)nc1N1CCC(CCN(C)C)CC1", "IC50": "< 100"},
      {"smiles": "COc1c(Nc2cc(C)[nH]n2)nc(Sc2ccc(NC(=O)Cc3cccc([N+](=O)[O-])c3F)cc2F)nc1N1CCOCC1", "IC50": "< 100"},
      {"smiles": "COc1c(Nc2cc(C)[nH]n2)nc(Sc2ccc(S(=O)(=O)C(F)c3cccc([N+](=O)[O-])c3F)cc2F)nc1N1CCC(CCN(C)C)CC1", "note": "(stereo not drawn)", "IC50": "< 100"},
      {"smiles": "COc1c(Nc2cc(C)[nH]n2)nc(Sc2ccc(S(=O)(=O)C(C)(C)c3cccc([N+](=O)[O-])c3F)cc2F)nc1N1CCCCC1", "IC50": "< 100"},
      {"smiles": "COc1c(Nc2cc(C)[nH]n2)nc(Sc2ccc(S(=O)(=O)C(C)(C)c3cccc([N+](=O)[O-])c3F)cc2F)nc1N1CCN(CCN(C)C)CC1", "IC50": "< 100"},
      {"smiles": "COc1c(Nc2cc(C)[nH]n2)nc(Sc2ccc(S(=O)(=O)C(F)c3cccc([N+](=O)[O-])c3F)cc2F)nc1N1CCOC[C@@H]1CO", "note": "(stereo partly drawn)", "IC50": "< 100"},
      {"smiles": "COc1c(Nc2cc(C)[nH]n2)nc(Sc2ccc(S(=O)(=O)C(F)(F)c3c(F)c(F)cc(F)c3F)cc2F)nc1N1CCOCC1", "IC50": "< 100"},
      {"smiles": "COc1c(Nc2cc(C)[nH]n2)nc(Sc2ccc(S(=O)(=O)C(C)(C)c3c(F)c(F)c(C)c(F)c3F)cc2F)nc1N1CCOCC1", "IC50": "< 100"},
      {"smiles": "COc1c(Nc2cc(C)[nH]n2)nc(Sc2ccc(S(=O)(=O)C(C)(C)c3c(F)c(F)c(C)c(F)c3F)cc2F)nc1N1CCN(CCN(C)C)CC1", "IC50": "< 100"},
      {"smiles": "COc1c(Nc2cc(C)[nH]n2)nc(Sc2ccc(S(=O)(=O)CCc3cccc([N+](=O)[O-])c3F)cc2F)nc1N1CCOCC1", "IC50": "< 100"},
      {"smiles": "COc1c(Nc2cc(C)[nH]n2)nc(Sc2ccc(S(=O)(=O)C(C)(C)c3cccc([N+](=O)[O-])c3F)cc2F)nc1N1CCC(CCN(C)C)CC1", "IC50": "< 100"},
      {"smiles": "COc1c(Nc2cc(C)[nH]n2)nc(Sc2ccc(S(=O)(=O)C(C)(C)c3cccc([N+](=O)[O-])c3F)cc2F)nc1N1CCOC[C@@H]1CO", "IC50": "< 100"},
      {"smiles": "COc1c(Nc2cc(C)[nH]n2)nc(Sc2ccc(S(=O)(=O)C(C)(C)c3cccc(Cl)c3F)cc2F)nc1N1CCOCC1", "IC50": "< 100"},
      {"smiles": "COc1c(Nc2cc(C)[nH]n2)nc(Sc2ccc(S(=O)(=O)C(C)(C)c3cccc(Br)c3F)cc2F)nc1N1CCN(CCN(C)C)CC1", "IC50": "< 100"},
      {"smiles": "COc1c(Nc2cc(C)[nH]n2)nc(Sc2ccc(S(=O)(=O)C(C)(C)c3cccc(Cl)c3F)cc2F)nc1N1CCN(CCN(C)C)CC1", "IC50": "< 100"},
      {"smiles": "COc1c(Nc2cc(C)[nH]n2)nc(Sc2ccc(S(=O)(=O)C(C)(C)c3cc(F)cc(Cl)c3F)cc2F)nc1N1CCOCC1", "IC50": "< 100"},
      {"smiles": "COc1c(Nc2cc(C)[nH]n2)nc(Sc2ccc(S(=O)(=O)C(F)c3cc(F)cc([N+](=O)[O-])c3F)cc2F)nc1N1CCOCC1", "note": "(stereo not drawn)", "IC50": "< 100"},
      {"smiles": "COc1c(Nc2cc(C)[nH]n2)nc(Sc2ccc(S(=O)(=O)C(C)(C)c3cccc([N+](=O)[O-])c3F)cc2F)nc1N1CCC(N(C)C)CC1", "IC50": "< 100"},
      {"smiles": "COc1c(Nc2cc(C)[nH]n2)nc(Sc2ccc(S(=O)(=O)C(C)(C)c3cccc([N+](=O)[O-])c3F)cc2F)nc1N1CCN(C)CC1", "IC50": "< 100"},
      {"smiles": "COc1c(Nc2cc(C)[nH]n2)nc(Sc2ccc(S(=O)(=O)C(C)(C)c3cccc([N+](=O)[O-])c3F)cc2F)nc1N1CCNCC1", "IC50": "< 100"},
      {"smiles": "COc1c(Nc2cc(C)[nH]n2)nc(Sc2ccc(S(=O)(=O)C(C)(C)c3cccc([N+](=O)[O-])c3F)cc2F)nc1N1CCCC(N(C)C)C1", "note": "(stereo not drawn)", "IC50": "< 100"},
      {"smiles": "COc1c(Nc2cc(C)[nH]n2)nc(Sc2ccc(S(=O)(=O)C(C)(C)c3cc(F)cc([N+](=O)[O-])c3F)cc2F)nc1N1CCC(CCN(C)C)CC1", "IC50": "< 100"},
      {"smiles": "COc1c(Nc2cc(C)[nH]n2)nc(Sc2ccc(S(=O)(=O)C(C)(C)c3cccc(Cl)c3F)cc2F)nc1N1CCC(CCN(C)C)CC1", "IC50": "< 100"},
      {"smiles": "COc1c(Nc2cc(C)[nH]n2)nc(Sc2ccc(S(=O)(=O)C(C)(C)c3cccc([N+](=O)[O-])c3F)cc2F)nc1N1CCC(CCCN(C)C)CC1", "IC50": "< 100"},
      {"smiles": "COc1c(Nc2cc(C)[nH]n2)nc(Sc2ccc(S(=O)(=O)C(C)(C)c3cc(F)cc(Cl)c3F)cc2F)nc1N1CCC(CCN(C)C)CC1", "IC50": "< 100"},
      {"smiles": "COc1c(Nc2cc(C)[nH]n2)nc(Sc2ccc(S(=O)(=O)C(C)(C)c3cccc([N+](=O)[O-])c3F)cc2F)nc1N1CCC(CN(C)C)CC1", "IC50": "< 100"},
      {"smiles": "COc1c(Nc2cc(C)[nH]n2)nc(Sc2ccc(S(=O)(=O)C(C)(C)c3cccc([N+](=O)[O-])c3F)cc2F)nc1N1CCC(CC(=O)N(C)C)CC1", "IC50": "< 100"},
      {"smiles": "COc1c(Nc2cc(C)[nH]n2)nc(Sc2ccc(S(=O)(=O)C(C)(C)c3cccc([N+](=O)[O-])c3F)cc2F)nc1N(C)C", "IC50": "< 100"},
      {"smiles": "COc1c(Nc2cc(C)[nH]n2)nc(Sc2ccc(S(=O)(=O)C(C)(C)c3cccc([N+](=O)[O-])c3F)cc2F)nc1N1CCC(CCNC(C)=O)CC1", "IC50": "< 100"},
      {"smiles": "COc1ccc(CN(C)CCC2CCN(c3nc(Sc4ccc(S(=O)(=O)C(C)(C)c5cc(Cl)cc([N+](=O)[O-])c5F)cc4F)nc(Nc4cc(C)[nH]n4)c3OC)CC2)cc1", "IC50": "< 100"},
      {"smiles": "COc1c(Nc2cc(C)[nH]n2)nc(Sc2ccc(S(=O)(=O)C(C)(C)c3c(F)c(F)cc(F)c3F)cc2F)nc1N1CCC(N(C)C)CC1", "IC50": "< 100"},
      {"smiles": "COc1c(Nc2cc(C)[nH]n2)nc(Sc2ccc(S(=O)(=O)Cc3c(F)c(F)cc(Cl)c3F)cc2F)nc1N1CCOCC1", "IC50": "< 100"},
      {"smiles": "COc1c(Nc2cc(C)[nH]n2)nc(Sc2ccc(S(=O)(=O)Cc3c(F)c(F)cc(Cl)c3F)cc2F)nc1N1CCN(CCN(C)C)CC1", "IC50": "< 100"},
      {"smiles": "COc1c(Nc2cc(C)[nH]n2)nc(Sc2ccc(S(=O)(=O)Cc3c(F)c(F)cc(Cl)c3F)cc2F)nc1N1CCC(CCN(C)C)CC1", "IC50": "< 100"},
      {"smiles": "COC(=O)CC1CCN(c2nc(Sc3ccc(S(=O)(=O)C(C)(C)c4cccc([N+](=O)[O-])c4F)cc3F)nc(Nc3cc(C)[nH]n3)c2OC)CC1", "IC50": "< 100"},
      {"smiles": "COc1c(Nc2cc(C)[nH]n2)nc(Sc2ccc(S(=O)(=O)C(C)(C)c3cccc([N+](=O)[O-])c3F)cc2F)nc1N1CCC(CC(=O)O)CC1", "IC50": "< 100"},
      {"smiles": "COc1c(Nc2cc(C)[nH]n2)nc(Sc2ccc(S(=O)(=O)C(C)(C)c3cccc([N+](=O)[O-])c3F)cc2F)nc1N1CCC(N(C)C)C1", "note": "(stereo not drawn)", "IC50": "< 100"}
    ]}
  ]
}
